Results published in PMC5218480 (PLoS ONE, 2017).

Test system: MV-4-11 cells
Assay: Gene expression microarray analysis (Affymetrix PrimeView) and GSEA
Type: cell-based, human
Design: RFU PODN (11730768_x_at) / Fold change /veh PODN (11730768_x_at) / RFU LINC00158 (11744669_a_at) / Fold change /veh LINC00158 (11744669_a_at) / RFU DUSP10 (11751237_a_at) / Fold change /veh DUSP10 (11751237_a_at) / RFU ID3 (11757404_x_at) / Fold change /veh ID3 (11757404_x_at) / RFU PLEKHG5 (11737974_s_at) / Fold change /veh PLEKHG5 (11737974_s_at) / RFU LRRC4B (11730491_at) / Fold change /veh LRRC4B (11730491_at) / RFU GIMAP4 (11747438_a_at) / Fold change /veh GIMAP4 (11747438_a_at) / RFU KRT8 (11758183_x_at) / Fold change /veh KRT8 (11758183_x_at) / RFU CNN1 (11734310_a_at) / Fold change /veh CNN1 (11734310_a_at) / RFU VPS37D (11726825_at) / Fold change /veh VPS37D (11726825_at) / RFU C10orf10 (11716522_x_at) / Fold change /veh C10orf10 (11716522_x_at) / RFU KIR2DL2 /// KIR2DL4 /// KIR2DL5A /// KIR2DL5B /// KIR2DS1 /// KIR2DS2 /// KIR2DS3 /// KIR2DS4 /// KIR3DL3 /// KIR3DL3 /// KIR3DS1 (11738374_at) / Fold change /veh KIR2DL2 /// KIR2DL4 /// KIR2DL5A /// KIR2DL5B /// KIR2DS1 /// KIR2DS2 /// KIR2DS3 /// KIR2DS4 /// KIR3DL3 /// KIR3DL3 /// KIR3DS1 (11738374_at) / RFU C1QL1 (11718748_at) / Fold change /veh C1QL1 (11718748_at) / RFU TMPRSS4 (11747572_a_at) / Fold change /veh TMPRSS4 (11747572_a_at) / RFU HAMP (11756126_x_at) / Fold change /veh HAMP (11756126_x_at) / RFU RNFT2 (11725882_a_at) / Fold change /veh RNFT2 (11725882_a_at) / RFU NR4A2 (11747474_a_at) / Fold change /veh NR4A2 (11747474_a_at) / RFU ABCC12 (11746883_a_at) / Fold change /veh ABCC12 (11746883_a_at) / RFU TMEM136 (11760407_x_at) / Fold change /veh TMEM136 (11760407_x_at) / RFU CLDN22 /// WWC2 (11732394_at) / Fold change /veh CLDN22 /// WWC2 (11732394_at) / RFU HLA-DPB1 (11760878_x_at) / Fold change /veh HLA-DPB1 (11760878_x_at) / RFU SPINT1 (11716480_a_at) / Fold change /veh SPINT1 (11716480_a_at) / RFU GAP43 (11754022_s_at) / Fold change /veh GAP43 (11754022_s_at) / RFU A4GNT (11735810_at) / Fold change /veh A4GNT (11735810_at) / RFU PRB3 (11715151_x_at) / Fold change /veh PRB3 (11715151_x_at) / RFU TUBB4B (11761932_at) / Fold change /veh TUBB4B (11761932_at) / RFU CAPN14 (11732068_a_at) / Fold change /veh CAPN14 (11732068_a_at) / RFU TMCC2 (11721928_a_at) / Fold change /veh TMCC2 (11721928_a_at) / RFU IRGQ (11745062_a_at) / Fold change /veh IRGQ (11745062_a_at) / RFU FAM174B (11720279_a_at) / Fold change /veh FAM174B (11720279_a_at) / RFU TMPRSS4 (11748680_a_at) / Fold change /veh TMPRSS4 (11748680_a_at) / RFU FAM212B (11763350_a_at) / Fold change /veh FAM212B (11763350_a_at) / RFU PLEKHG5 (11743358_a_at) / Fold change /veh PLEKHG5 (11743358_a_at) / RFU ZSCAN30 (11745921_a_at) / Fold change /veh ZSCAN30 (11745921_a_at) / RFU CMKLR1 (11741424_a_at) / Fold change /veh CMKLR1 (11741424_a_at) / RFU LOC101060620 /// MAPK8IP1 (11723275_at) / Fold change /veh LOC101060620 /// MAPK8IP1 (11723275_at) / RFU SPTSSB (11747773_x_at) / Fold change /veh SPTSSB (11747773_x_at) / RFU PRSS12 (11739890_at) / Fold change /veh PRSS12 (11739890_at) / RFU BIN1 (11741810_x_at) / Fold change /veh BIN1 (11741810_x_at) / RFU WNT11 (11732464_a_at) / Fold change /veh WNT11 (11732464_a_at) / RFU C10orf10 (11716521_a_at) / Fold change /veh C10orf10 (11716521_a_at) / RFU C5orf56 (11738089_at) / Fold change /veh C5orf56 (11738089_at) / RFU CYB561 (11721691_x_at) / Fold change /veh CYB561 (11721691_x_at) / RFU ANKRD19P (11752326_a_at) / Fold change /veh ANKRD19P (11752326_a_at) / RFU OR2T12 /// OR2T33 /// OR2T8 (11738714_s_at) / Fold change /veh OR2T12 /// OR2T33 /// OR2T8 (11738714_s_at) / RFU VCAN (11748164_a_at) / Fold change /veh VCAN (11748164_a_at) / RFU JSRP1 (11732532_at) / Fold change /veh JSRP1 (11732532_at) / RFU KRTAP10-11 (11738290_x_at) / Fold change /veh KRTAP10-11 (11738290_x_at) / RFU MYO3A (11730013_a_at) / Fold change /veh MYO3A (11730013_a_at) / RFU EBF3 (11725865_a_at) / Fold change /veh EBF3 (11725865_a_at) / RFU CAMK2N1 (11719241_x_at) / Fold change /veh CAMK2N1 (11719241_x_at) / RFU C5orf56 (11738088_a_at) / Fold change /veh C5orf56 (11738088_a_at) / RFU OLFML3 (11715873_a_at) / Fold change /veh OLFML3 (11715873_a_at) / RFU LOC100653217 /// NTM (11731650_a_at) / Fold change /veh LOC100653217 /// NTM (11731650_a_at) / RFU MAPK11 (11762145_a_at) / Fold change /veh MAPK11 (11762145_a_at) / RFU FIZ1 (11724087_x_at) / Fold change /veh FIZ1 (11724087_x_at) / RFU OASL (11726364_x_at) / Fold change /veh OASL (11726364_x_at) / RFU SOX15 (11748057_x_at) / Fold change /veh SOX15 (11748057_x_at) / RFU CD79A (11719716_a_at) / Fold change /veh CD79A (11719716_a_at) / RFU HIST1H1D (11736915_at) / Fold change /veh HIST1H1D (11736915_at) / RFU CASKIN2 (11723855_a_at) / Fold change /veh CASKIN2 (11723855_a_at) / RFU LOC730098 (11760151_x_at) / Fold change /veh LOC730098 (11760151_x_at) / RFU OR4N2 (11742367_at) / Fold change /veh OR4N2 (11742367_at) / RFU PRRT2 (11749266_a_at) / Fold change /veh PRRT2 (11749266_a_at) / RFU SNX32 (11753110_a_at) / Fold change /veh SNX32 (11753110_a_at) / RFU CDHR5 (11726645_a_at) / Fold change /veh CDHR5 (11726645_a_at) / RFU RCAN1 (11760418_a_at) / Fold change /veh RCAN1 (11760418_a_at) / RFU FAM167A (11723789_a_at) / Fold change /veh FAM167A (11723789_a_at) / RFU FAM26E (11764081_at) / Fold change /veh FAM26E (11764081_at) / RFU ISYNA1 (11749810_s_at) / Fold change /veh ISYNA1 (11749810_s_at) / RFU ACY1 (11761880_at) / Fold change /veh ACY1 (11761880_at) / RFU 11764098_at / Fold change /veh 11764098_at / RFU SAMD14 (11745864_x_at) / Fold change /veh SAMD14 (11745864_x_at) / RFU NPB (11741838_a_at) / Fold change /veh NPB (11741838_a_at) / RFU TMPRSS6 (11731388_a_at) / Fold change /veh TMPRSS6 (11731388_a_at) / RFU KRTAP10-2 (11738614_at) / Fold change /veh KRTAP10-2 (11738614_at) / RFU ARHGAP8 /// PRR5-ARHGAP8 (11727945_x_at) / Fold change /veh ARHGAP8 /// PRR5-ARHGAP8 (11727945_x_at) / RFU KRTAP5-7 /// NADSYN1 (11734609_at) / Fold change /veh KRTAP5-7 /// NADSYN1 (11734609_at) / RFU RASL12 (11751679_a_at) / Fold change /veh RASL12 (11751679_a_at) / RFU CDKN2B (11736163_a_at) / Fold change /veh CDKN2B (11736163_a_at) / RFU PRF1 (11729649_at) / Fold change /veh PRF1 (11729649_at) / RFU, ZNF638 /// ZNF638-IT1 / Fold change vs veh, ZNF638 /// ZNF638-IT1 / RFU, PANK3 / Fold change vs veh, PANK3 / RFU, SH3YL1 / Fold change vs veh, SH3YL1 / RFU, ZEB2 / Fold change vs veh, ZEB2 / RFU, NRIP1 / Fold change vs veh, NRIP1 / RFU, PTTG1IP / Fold change vs veh, PTTG1IP / RFU, CAPN2 / Fold change vs veh, CAPN2 / RFU, MED14 / Fold change vs veh, MED14 / RFU, SNORA58 / Fold change vs veh, SNORA58 / RFU, C1orf63 / Fold change vs veh, C1orf63 / RFU, LRRFIP1 / Fold change vs veh, LRRFIP1 / RFU, NDUFAF7 / Fold change vs veh, NDUFAF7 / RFU, SLC12A2 / Fold change vs veh, SLC12A2 / RFU, IBTK / Fold change vs veh, IBTK / RFU, ESF1 / Fold change vs veh, ESF1 / Fold change vs veh, TMEM50B / RFU, TAOK1 / Fold change vs veh, TAOK1 / RFU, ACBD3 / Fold change vs veh, ACBD3 / RFU, TMA16 / Fold change vs veh, TMA16 / RFU, RWDD3 / Fold change vs veh, RWDD3 / RFU, BCAT1 / Fold change vs veh, BCAT1 / RFU, EDEM3 / Fold change vs veh, EDEM3 / RFU, TMEM33 / Fold change vs veh, TMEM33 / RFU, WDR75 / Fold change vs veh, WDR75 / RFU, AHCTF1 / Fold change vs veh, AHCTF1 / RFU, TFRC / Fold change vs veh, TFRC / RFU, ZDHHC17 / Fold change vs veh, ZDHHC17 / RFU, NOM1 / Fold change vs veh, NOM1 / RFU, ARL8B / Fold change vs veh, ARL8B / RFU, ZBTB11 / Fold change vs veh, ZBTB11 / RFU, TAMM41 / Fold change vs veh, TAMM41 / RFU, KIAA1704 /// LOC100996395 / Fold change vs veh, KIAA1704 /// LOC100996395 / RFU, ING1 / Fold change vs veh, ING1 / RFU, TRMT61B / Fold change vs veh, TRMT61B / RFU, FUBP3 / Fold change vs veh, FUBP3 / RFU, TP53 / Fold change vs veh, TP53 / RFU, TNKS2 / Fold change vs veh, TNKS2 / RFU, ZFP14 / Fold change vs veh, ZFP14 / RFU, ACTR2 / Fold change vs veh, ACTR2 / RFU, PPP3R1 / Fold change vs veh, PPP3R1 / RFU, PIK3R1 / Fold change vs veh, PIK3R1 / RFU, HNRNPA1 / Fold change vs veh, HNRNPA1 / RFU, RNF170 / Fold change vs veh, RNF170 / RFU, ZNF28 / Fold change vs veh, ZNF28 / RFU, RNGTT / Fold change vs veh, RNGTT / RFU, OGT / Fold change vs veh, OGT / RFU, BRD1 / Fold change vs veh, BRD1 / RFU, MARS / Fold change vs veh, MARS / RFU, ZNF655 / Fold change vs veh, ZNF655 / RFU, FAHD1 / Fold change vs veh, FAHD1 / RFU, BDP1 / Fold change vs veh, BDP1 / RFU, LRRCC1 / Fold change vs veh, LRRCC1 / RFU, ARID1A / Fold change vs veh, ARID1A / RFU, ZNF146 / Fold change vs veh, ZNF146 / RFU, ZNF330 / Fold change vs veh, ZNF330 / RFU, GPN3 / Fold change vs veh, GPN3 / RFU, C9orf123 / Fold change vs veh, C9orf123 / RFU, N4BP2L2 / Fold change vs veh, N4BP2L2 / RFU, ARFIP1 / Fold change vs veh, ARFIP1 / RFU, FAM179B / Fold change vs veh, FAM179B / RFU, BCL10 / Fold change vs veh, BCL10 / RFU, UHRF1BP1L / Fold change vs veh, UHRF1BP1L / RFU, BET1 / Fold change vs veh, BET1 / RFU, CNOT2 / Fold change vs veh, CNOT2 / RFU, ZNF268 / Fold change vs veh, ZNF268 / Fold change vs veh, ZNF507 / RFU, DGCR2 / Fold change vs veh, DGCR2 / RFU, WDSUB1 / Fold change vs veh, WDSUB1 / Fold change vs veh, HSP90B1 /// MIR3652 / RFU, ADSS / Fold change vs veh, ADSS / RFU, GK / Fold change vs veh, GK / RFU, ZNF148 / Fold change vs veh, ZNF148 / RFU, TAF9 / Fold change vs veh, TAF9 / RFU, SLC1A5 / Fold change vs veh, SLC1A5 / RFU, SLMO2 / Fold change vs veh, SLMO2 / RFU, ABCC4 / Fold change vs veh, ABCC4 / RFU, LOC101060439 /// RAP1B / Fold change vs veh, LOC101060439 /// RAP1B / RFU, RFX7 / Fold change vs veh, RFX7 / RFU, GTPBP10 / Fold change vs veh, GTPBP10 / RFU, CNEP1R1 / Fold change vs veh, CNEP1R1 / RFU, BIVM-ERCC5 /// ERCC5 / Fold change vs veh, BIVM-ERCC5 /// ERCC5 / RFU, ILF3 / Fold change vs veh, ILF3 / RFU 11762660_at / Fold change /veh 11762660_at / RFU VCAN (11757783_s_at) / Fold change /veh VCAN (11757783_s_at) / RFU DDX43 (11728927_at) / Fold change /veh DDX43 (11728927_at) / RFU KRT8 (11758188_x_at) / Fold change /veh KRT8 (11758188_x_at) / RFU NKD1 (11759106_at) / Fold change /veh NKD1 (11759106_at) / RFU SRD5A1 (11742802_a_at) / Fold change /veh SRD5A1 (11742802_a_at) / RFU TPSAB1 /// TPSB2 (11721975_s_at) / Fold change /veh TPSAB1 /// TPSB2 (11721975_s_at) / RFU GSTM3 (11746129_a_at) / Fold change /veh GSTM3 (11746129_a_at) / RFU IL23R (11737362_x_at) / Fold change /veh IL23R (11737362_x_at) / RFU TMEM51 (11727254_a_at) / Fold change /veh TMEM51 (11727254_a_at) / RFU PIWIL2 (11732686_x_at) / Fold change /veh PIWIL2 (11732686_x_at) / RFU ORM1 (11744905_x_at) / Fold change /veh ORM1 (11744905_x_at) / RFU CCDC152 (11743942_at) / Fold change /veh CCDC152 (11743942_at) / RFU ECM1 (11717891_a_at) / Fold change /veh ECM1 (11717891_a_at) / RFU IL23R (11748794_a_at) / Fold change /veh IL23R (11748794_a_at) / RFU TNFAIP8L3 (11732012_x_at) / Fold change /veh TNFAIP8L3 (11732012_x_at) / RFU MBOAT4 (11741988_at) / Fold change /veh MBOAT4 (11741988_at) / RFU 11764193_at / Fold change /veh 11764193_at / RFU TMEM53 (11763286_at) / Fold change /veh TMEM53 (11763286_at) / RFU MAGEB2 (11727129_at) / Fold change /veh MAGEB2 (11727129_at) / RFU TMEM200A (11744735_a_at) / Fold change /veh TMEM200A (11744735_a_at) / RFU CCDC152 (11751479_a_at) / Fold change /veh CCDC152 (11751479_a_at) / RFU FAM211A (11726209_a_at) / Fold change /veh FAM211A (11726209_a_at) / RFU RGS16 (11746705_a_at) / Fold change /veh RGS16 (11746705_a_at) / RFU VCAN (11755009_s_at) / Fold change /veh VCAN (11755009_s_at) / RFU RHOB (11743442_s_at) / Fold change /veh RHOB (11743442_s_at) / RFU RGS16 (11720943_a_at) / Fold change /veh RGS16 (11720943_a_at) / RFU RGS16 (11720944_at) / Fold change /veh RGS16 (11720944_at) / RFU, VPS4B / Fold change vs veh, VPS4B / RFU, CREB1 / Fold change vs veh, CREB1 / RFU, DNAJC13 / Fold change vs veh, DNAJC13 / RFU, GNAQ / Fold change vs veh, GNAQ / RFU, CDK5R1 / Fold change vs veh, CDK5R1 / RFU, ZRANB3 / Fold change vs veh, ZRANB3 / RFU, CUL4A / Fold change vs veh, CUL4A / RFU, CCNY / Fold change vs veh, CCNY / RFU, UFL1 / Fold change vs veh, UFL1 / RFU, COG3 / Fold change vs veh, COG3 / RFU, DIAPH2 / Fold change vs veh, DIAPH2 / RFU, SKA2 / Fold change vs veh, SKA2 / RFU, AFF3 / Fold change vs veh, AFF3 / RFU, LMF1 / Fold change vs veh, LMF1 / RFU, IPO11 / Fold change vs veh, IPO11 / RFU, DFFB / Fold change vs veh, DFFB / RFU, FOXP1 / Fold change vs veh, FOXP1 / RFU, CARD8 / Fold change vs veh, CARD8 / RFU, STRN3 / Fold change vs veh, STRN3 / RFU, ADK / Fold change vs veh, ADK / RFU, RASSF2 / Fold change vs veh, RASSF2 / RFU, WIPF1 / Fold change vs veh, WIPF1 / RFU, LARP1B / Fold change vs veh, LARP1B / RFU, RASA1 / Fold change vs veh, RASA1 / RFU, RB1 / Fold change vs veh, RB1 / RFU, PPFIA1 / Fold change vs veh, PPFIA1 / RFU, MAT2A / Fold change vs veh, MAT2A / RFU, CCT5 / Fold change vs veh, CCT5 / RFU, WDR92 / Fold change vs veh, WDR92 / RFU, CUX1 / Fold change vs veh, CUX1 / RFU, TTC7A / Fold change vs veh, TTC7A / RFU, TMEM135 / Fold change vs veh, TMEM135 / RFU, DEPTOR / Fold change vs veh, DEPTOR / RFU, CPM / Fold change vs veh, CPM / RFU, DNAJB6 / Fold change vs veh, DNAJB6 / RFU, CACNA2D3 / Fold change vs veh, CACNA2D3 / RFU, DTX4 / Fold change vs veh, DTX4 / RFU, TFCP2 / Fold change vs veh, TFCP2 / RFU, GMCL1 /// GMCL1P1 / Fold change vs veh, GMCL1 /// GMCL1P1 / RFU, AEBP2 / Fold change vs veh, AEBP2 / RFU, SNHG1 /// SNORD22 /// SNORD25 /// SNORD26 /// SNORD27 /// SNORD28 /// SNORD29 /// SNORD31 / Fold change vs veh, SNHG1 /// SNORD22 /// SNORD25 /// SNORD26 /// SNORD27 /// SNORD28 /// SNORD29 /// SNORD31 / Fold change (Aza/veh), C12orf56 (ProbeSet 11735607_a_at) / Fold change (ACY-1035/veh), C12orf56 (ProbeSet 11735607_a_at) / Fold change (Aza/veh), FGFR1OP (ProbeSet 11751329_s_at) / Fold change (ACY-1035/veh), FGFR1OP (ProbeSet 11751329_s_at) / Fold change (Aza/veh), VPS36 (ProbeSet 11739960_a_at) / Fold change (ACY-1035/veh), VPS36 (ProbeSet 11739960_a_at) / RFU SYPL1 (11715823_x_at) / Fold change /veh SYPL1 (11715823_x_at) / RFU IGFBP7 (11715501_s_at) / Fold change /veh IGFBP7 (11715501_s_at) / RFU REEP3 (11722064_at) / Fold change /veh REEP3 (11722064_at) / RFU IGLL1 (11728026_x_at) / Fold change /veh IGLL1 (11728026_x_at): dose or concentration left out as unconfirmed
Conditions: MV-4-11 cells, 48 hours

SMILES: Nc1ncn([C@@H]2O[C@H](CO)[C@@H](O)[C@H]2O)c(=O)n1 [azacitidine]
- RFU KRTAP10-11 (11738290_x_at): 43.89 RFU
